Results: patent US9421276B2, “Clickable polyoxetane carrier for drug delivery” (VIRGINIA COMMONWEALTH UNIVERSITY, priority 2012, dated 2016)

Assays:
[1] = physiological pH, background statement; cited from earlier work
[2] = system: Human glioma U1242/luc-GFP cells; test: Cell toxicity assay (luciferase assay); format: cell-based; conditions: 48 h, carriers at concentrations up to 33 μM
Procedure: Cell toxicity assays. Human glioma U1242/luc-GFP cells stably expressing the reporter luciferase were exposed to various CPT equivalent concentrations of polymer-CPT conjugates or polymer control samples (n=4) in a 96-well microtiter plate for 48 h followed by luciferase assay to assess survival of cells.

For `CC[C@@]1(O)C(=O)OCc2c1cc1n(c2=O)Cc2cc3ccccc3nc2-1` [CPT, 20(S)-Camptothecin], the “stability of lactone form” value [1] is listed as “rapidly transforms into the carboxylate form” and the cytotoxicity [2] is listed as “dose-dependent toxic”.
